Laboratory results published in the OPERA property sets (Mansouri et al. 2018).

Compound | logP
CCCCOc1ccc(-c2cnc(SCCc3c[nH]cn3)[nH]2)cc1 | 4.11
O=S(=O)(Oc1ccc(-c2cnc(SCCc3c[nH]cn3)[nH]2)cc1)c1ccccc1 | 3.72
Brc1cccc(-c2cnc(SCCc3c[nH]cn3)[nH]2)c1 | 3.76
Clc1ccc(-c2cnc(SCCc3c[nH]cn3)[nH]2)cc1 | 3.66
O=[N+]([O-])c1ccc(-c2cnc(SCCc3c[nH]cn3)[nH]2)cc1 | 2.75
CCCc1ccc(-c2cnc(SCCc3c[nH]cn3)[nH]2)cc1 | 4.09
c1ccc(-c2cnc(SCCc3c[nH]cn3)[nH]2)cc1 | 2.62

Other lines, results leading:

logP | Compound
1.61 | NC(=O)c1cccc(-c2cnc(SCCc3c[nH]cn3)[nH]2)c1
2.43 | O=[N+]([O-])c1cccc(-c2cnc(SCCc3c[nH]cn3)[nH]2)c1
1.4 | NC(=O)c1ccc(-c2cnc(SCCc3c[nH]cn3)[nH]2)cc1
3.7 | CCCc1cccc(-c2cnc(SCCc3c[nH]cn3)[nH]2)c1
